Earlier results on 22 molecules are cited in patent publication US20250025568A1, “COMBINATION OF ANTIBODY-DRUG CONJUGATE AND PARP1 SELECTIVE INHIBITOR” (AstraZeneca UK Limited, priority 2021, published 2025).

Series [1] relates to BRCA2 −/− DLD-1. As to conditions: 4 day compound dosing; read-out: BRCA2 −/− DLD-1 prolif 4 d IC50; cited from earlier work.
In series [2] the test system is WT DLD-1. As to conditions: 4 day compound dosing; read-out: WT DLD-1 prolif 4 d IC50; cited from earlier work.

pIC50: −log10 of the molar value.

Regarding `CNC(=O)c1ccc(N2CCN(Cc3ccc4nc(C(F)(F)F)c(=O)[nH]c4c3)CC2)c(Cl)n1` [Example 16, 6-chloro-N-methyl-5-[4-[[3-oxo-2-(trifluoromethyl)-4H-quinoxalin-6-yl]methyl]piperazin-1-yl]pyridine-2-carboxamide], the pIC50 in series [1] was 7.74; in series [2], less than 4.66. Regarding `CCc1nc2ccc(CN3CCN(c4ccc(C(=O)NC)nc4C(F)F)CC3)cc2[nH]c1=O` [Example 10, 6-(difluoromethyl)-5-[4-[(2-ethyl-3-oxo-4H-quinoxalin-6-yl)methyl]piperazin-1-yl]-N-methyl-pyridine-2-carboxamide], the pIC50 in series [1] was 8.22; in series [2] it was less than 4.52. Consider `CNC(=O)c1ccc(N2CCN(Cc3ccc4nc(CCF)c(=O)[nH]c4c3)CC2)c(F)n1` [Example 26, 6-fluoro-5-[4-[[2-(2-fluoroethyl)-3-oxo-4H-quinoxalin-6-yl]methyl]piperazin-1-yl]-N-methyl-pyridine-2-carboxamide], for which the pIC50 in series [1] is 8.30; in series [2], 4.64. Take `CCc1cc2ncc(CN3CCN(c4ccc(C(N)=O)nc4)CC3)cc2[nH]c1=O` [Example 7, 5-[4-[(7-ethyl-6-oxo-5H-1,5-naphthyridin-3-yl)methyl]piperazin-1-yl]pyridine-2-carboxamide]: the pIC50 in series [1] is 5.38. Consider `CCc1nc2cc(F)c(CN3CCN(c4ccc(C(=O)NC)nc4F)CC3)cc2[nH]c1=O` [Example 21, 5-[4-[(2-ethyl-7-fluoro-3-oxo-4H-quinoxalin-6-yl)methyl]piperazin-1-yl]-6-fluoro-N-methyl-pyridine-2-carboxamide], for which the pIC50 in series [1] was 7.80; in series [2] it was less than 4.52. Turning to `CCc1cc2cnc(CN3CCN(c4ccc(C(=O)NC)nc4)CC3)cc2[nH]c1=O` [Example 1, 5-[4-[(3-ethyl-2-oxo-1H-1,6-naphthyridin-7-yl)methyl]piperazin-1-yl]-N-methyl-pyridine-2-carboxamide], the values for the pIC50 in series [1] and in series [2] were 8.00 and less than 4.52, respectively. As to `CNC(=O)c1ccc(N2CCN(Cc3ccc4nc(C(F)(F)F)c(=O)[nH]c4c3)CC2)cn1` [Example 15, N-methyl-5-[4-[[3-oxo-2-(trifluoromethyl)-4H-quinoxalin-6-yl]methyl]piperazin-1-yl]pyridine-2-carboxamide], the pIC50 in series [1] is 7.05; in series [2], less than 4.52.

In the case of `CNC(=O)c1ccc(N2CCN(Cc3ccc4nc(CC(F)F)c(=O)[nH]c4c3)CC2)c(F)n1` [Example 24, 5-[4-[[2-(2,2-difluoroethyl)-3-oxo-4H-quinoxalin-6-yl]methyl]piperazin-1-yl]-6-fluoro-N-methyl-pyridine-2-carboxamide], the results for the pIC50 in series [1] and in series [2] were 8.00 and 4.85, respectively. Take `CCc1nc2ccc(CN3CCN(c4ccc(C(=O)NC)nc4C(F)(F)F)CC3)cc2[nH]c1=O` [Example 9, 5-[4-[(2-ethyl-3-oxo-4H-quinoxalin-6-yl)methyl]piperazin-1-yl]-N-methyl-6-(trifluoromethyl)pyridine-2-carboxamide]: the pIC50 was 8.00 in series [1] and 4.77 in series [2]. Turning to `CCc1cc2ncc(CN3CCN(c4ccc(C(=O)NC)nc4Cl)CC3)cc2[nH]c1=O` [Example 6, 6-chloro-5-[4-[(7-ethyl-6-oxo-5H-1,5-naphthyridin-3-yl)methyl]piperazin-1-yl]-N-methyl-pyridine-2-carboxamide], the pIC50 in series [1] is 8.22; in series [2], less than 4.52. Take `CNC(=O)c1ccc(N2CCN(Cc3ccc4nc(C(C)(F)F)c(=O)[nH]c4c3)CC2)cn1` [Example 22, 5-[4-[[2-(1,1-difluoroethyl)-3-oxo-4H-quinoxalin-6-yl]methyl]piperazin-1-yl]-N-methyl-pyridine-2-carboxamide]: the results for the pIC50 in series [1] and in series [2] were 7.92 and less than 4.52, respectively. Take `CCCc1nc2ccc(CN3CCN(c4ccc(C(=O)NC)nc4F)CC3)cc2[nH]c1=O` [Example 20, 6-fluoro-N-methyl-5-[4-[(3-oxo-2-propyl-4H-quinoxalin-6-yl)methyl]piperazin-1-yl]pyridine-2-carboxamide]: the values for the pIC50 in series [1] and in series [2] were 7.80 and less than 4.62, respectively. `CCc1cc2ncc(CN3CCN(c4ccc(C(=O)NC)nc4F)CC3)cc2[nH]c1=O` [Example 5, 5-[4-[(7-ethyl-6-oxo-5H-1,5-naphthyridin-3-yl)methyl]piperazin-1-yl]-6-fluoro-N-methyl-pyridine-2-carboxamide]: the values for the pIC50 in series [1] and in series [2] were 8.22 and less than 4.52, respectively. On to `CCCc1nc2ccc(CN3CCN(c4ccc(C(=O)NC)nc4)CC3)cc2[nH]c1=O` [Example 18, N-methyl-5-[4-[(3-oxo-2-propyl-4H-quinoxalin-6-yl)methyl]piperazin-1-yl]pyridine-2-carboxamide], for which the pIC50 was 5.31 in series [1] and less than 4.52 in series [2]. In the case of `CNC(=O)c1ccc(N2CCN(Cc3ccc4nc(CC(F)(F)F)c(=O)[nH]c4c3)CC2)cn1` [Example 27, N-methyl-5-[4-[[3-oxo-2-(2,2,2-trifluoroethyl)-4H-quinoxalin-6-yl]methyl]piperazin-1-yl]pyridine-2-carboxamide], the pIC50 in series [1] is 4.99; in series [2] it was less than 5.00. Turning to `CCc1nc(C(=O)NC)ccc1N1CCN(Cc2ccc3nc(CC)c(=O)[nH]c3c2)CC1` [Example 8, 6-ethyl-5-[4-[(2-ethyl-3-oxo-4H-quinoxalin-6-yl)methyl]piperazin-1-yl]-N-methyl-pyridine-2-carboxamide], the pIC50 in series [2] is less than 4.72.

For `CCc1cc2cnc(CN3CCN(c4ccc(C(=O)NC)nc4Cl)CC3)cc2[nH]c1=O` [Example 3, 6-chloro-5-[4-[(3-ethyl-2-oxo-1H-1,6-naphthyridin-7-yl)methyl]piperazin-1-yl]-N-methyl-pyridine-2-carboxamide], the pIC50 in series [1] was 8.40; in series [2], less than 4.52. Regarding `CCc1nc2ccc(CN3CCN(c4ccc(C(=O)NC)nc4F)CC3)cc2[nH]c1=O` [Example 12, 5-[4-[(2-ethyl-3-oxo-4H-quinoxalin-6-yl)methyl]piperazin-1-yl]-6-fluoro-N-methyl-pyridine-2-carboxamide], the values for the pIC50 in series [1] and in series [2] were 8.10 and less than 4.52, respectively. With `CNC(=O)c1ccc(N2CCN(Cc3ccc4nc(C(F)(F)F)c(=O)[nH]c4c3)CC2)c(F)n1` [Example 17, 6-fluoro-N-methyl-5-[4-[[3-oxo-2-(trifluoromethyl)-4H-quinoxalin-6-yl]methyl]piperazin-1-yl]pyridine-2-carboxamide], the pIC50 was 7.70 in series [1] and less than 4.52 in series [2]. `CNC(=O)c1ccc(N2CCN(Cc3ccc4nc(CCF)c(=O)[nH]c4c3)CC2)cn1` [Example 25, 5-[4-[[2-(2-fluoroethyl)-3-oxo-4H-quinoxalin-6-yl]methyl]piperazin-1-yl]-N-methyl-pyridine-2-carboxamide]: the pIC50 in series [2] was less than 4.60.

Turning to `CCc1nc2ccc(CN3CCN(c4ccc(C(=O)NC)nc4C)CC3)cc2[nH]c1=O` [Example 13, 5-[4-[(2-ethyl-3-oxo-4H-quinoxalin-6-yl)methyl]piperazin-1-yl]-N, 6-dimethyl-pyridine-2-carboxamide], the pIC50 is 8.30 in series [1] and less than 4.59 in series [2].

On to `CCCc1nc2ccc(CN3CCN(c4ccc(C(=O)NC)nc4Cl)CC3)cc2[nH]c1=O` [Example 19, 6-chloro-N-methyl-5-[4-[(3-oxo-2-propyl-4H-quinoxalin-6-yl)methyl]piperazin-1-yl]pyridine-2-carboxamide], for which the pIC50 in series [2] is less than 4.52.
